Measured values reported in patent US8183210B2, “Reconstituted surfactants having improved properties” (Chiesi Farmaceutici S.p.A., priority 2006, dated 2012).
Bridge positions count the residues as written; N and C are the ends. Ends that are not written are not given here.

System: premature newborn rabbits
Experiment: Surfactant preparations in ventilated premature newborn rabbits without PEEP (model of RDS): lung gas volumes and tidal volumes
Format: in vivo, rabbit
Details: no PEEP; for lung gas volumes (median): reconstituted surfactant, 2% w/w of each named peptide in DPPC:POPG 68:31 w/w, 80 mg/ml, 2.5 ml/kg at birth, FIG. 3
Protocol: The surfactant preparations were assayed in premature newborn rabbits, obtained by hysterectomy at the gestational age of 27 days. The experiments were performed without applying a positive end expiratory pressure (PEEP). As the SP-C analog, the polypeptide referred to as SP-C33 was used which was prepared according to Example 1. As the analog of the protein SP-B, oxidized Mini-B (ox Mini-B) was used which was prepared according to Example 2.
The animals were treated at birth with reconstituted surfactant preparations containing, as lipid carrier, the phospholipid mixture DPPC:POPG in the ratio 68:31 w/w. The phospholipids were mixed with 2 or 4% w/w SPC-33, 2% w/w ox Mini-B, or 2% w/w SPC-33 plus 2% w/w ox Mini-B. Animals receiving the same dose of Curosurf® served as positive controls, and non-treated littermates served as negative controls. All surfactant preparations were administered at a concentration of 80 mg/ml and at a standard dose of 2.5 ml/kg.
The immature newborn rabbits were ventilated in parallel with a standardized sequence of peak insufflation pressures. To open up the lungs, pressure was first set at 35 cmH2O for 1 minute. After this recruitment manoeuvre, pressure was lowered to 25 cmH2O for 15 minutes and further on to 20 and 15 cm H2O. Finally, the pressure was raised again to 25 cmH2O for 5 minutes, after which the lungs were ventilated for additional 5 minutes with nitrogen and then excised for gas volume measurements. Both lung gas volumes and tidal volumes expressed as ml/kg were measured, and the results, given as median values, are reported in FIGS. 3 and 4, respectively.

Sequence | lung gas volumes (median) | lung gas volumes, effect of increasing SP-C33 content (SP-C33 content raised from 2 to 4% w/w in DPPC:POPG 68:31)
CWLCRALIKRIQAMIPKGGRMLPQLVCRLVLRCS (disulfide 1-33, 4-27) [ox Mini-B, SP-B analog] | about 2 ml/kg | –
IPSSPVHLKRLKLLLLLLLLILLLILGALLMGL [SP-C33] | about 4 ml/kg | did not increase lung gas volumes
